Experimental data: patent US8030300B2, “Ligands for nicotinic acetylcholine receptors, and methods of making and using them” (priority 2003, dated 2011)
Where two headings read alike, the source gives them in different places.

Experiments:
Type in all cases: binding
[1] = molecular target: T1, α2β2 nAChR subtype (Rattus norvegicus, UniProt P12389+P12390); test: biochemical
T1 construct: expressed in transfected cells
Excerpt: (§1) In order to assess the steric and hydropathic effects of the C-5 substituents of the pyridine on the binding affinity and subtype-selectivity at neuronal nicotinic acetylcholine receptors. […] The binding affinity ratios for a ligand, calculated from its affinities at an α subunit paired with either the β2 osubunit or the β4 subunit, represents a measure of the selectivity of that ligand with regard to the β subunits.

[2] = molecular target: T2, α2β4 nAChR subtype (Rattus norvegicus, UniProt P12389+P12392); test: biochemical
T2 construct: expressed in transfected cells
Excerpt: as §1

[3] = molecular target: T3, α3β2 nAChR subtype (Rattus norvegicus, UniProt P04757+P12390); test: biochemical
T3 construct: expressed in transfected cells
Excerpt: as §1

[4] = molecular target: T4, α3β4 nAChR subtype (Rattus norvegicus, UniProt P04757+P12392); test: biochemical
T4 construct: expressed in transfected cells
Excerpt: as §1

[5] = molecular target: T5, α4β2 nAChR subtype (Rattus norvegicus, UniProt P09483+P12390); test: biochemical
T5 construct: expressed in transfected cells
Excerpt: as §1

[6] = molecular target: T6, α4β4 nAChR subtype (Rattus norvegicus, UniProt P09483+P12392); test: biochemical
T6 construct: expressed in transfected cells
Excerpt: as §1

[7] = molecular target: T7, receptors in rat forebrain (mainly α4β2) (Rattus norvegicus, UniProt P09483+P12390); test: biochemical
T7 construct: from tissue; host or cells: rat forebrain homogenate
Excerpt: as §1
(§2) In Vitro Inhibition of ^3H-Epibatidin Binding
(§3) The high affinity binding site for ^3H-epibatidin is most certainly binding to the α4β2 subtype of nicotinic receptors. The identity of the low affinity site is still believed to be unknown.
(§4) Tissue preparation: Preparations may be performed at 0-4° C. unless otherwise indicated. […] The tissue suspension may then be centrifuged at 27,000×g for 10 min. The supernatant is then discarded and the pellet may then be washed three times by centrifugation at 27,000×g for 10 min in 20 mL fresh buffer, and the final pellet may be resuspended in fresh buffer (400 mL per g of original tissue) and used for binding assays.
(§5) Assay: Aliquots of 2.0 mL homogenate may be added to 0.100 mL of test solution and 0.100 mL of ^3H-epibatidin (0.3 nM, final concentration), mixed and incubated for 60 min at room temperature. […] The amount of radioactivity on the filters may be determined by conventional liquid scintillation counting. Specific binding is total binding minus non-specific binding.

[8] = system: receptors in rat forebrain (mainly α4β2); test: biochemical; conditions: Table 3; ratio of the corresponding Ki values
Excerpt: as §1, §2, §3, §4, §5

[9] = molecular target: T7, receptors in rat forebrain (mainly α4β2); conditions: Table 6, [3H]-EB 0.099 nM, 0.091 nM, n = 1
[10] = Table 3, mean of 3 independent measurements, read-out: Ki α2β2
[11] = Table 3, mean of 3 independent measurements, read-out: Ki α2β4
[12] = Table 3, mean of 3 independent measurements, read-out: Ki α3β2
[13] = Table 3, mean of 3 independent measurements, read-out: Ki α3β4
[14] = Table 3, mean of 3 independent measurements, read-out: Ki α4β2
[15] = Table 3, mean of 3 independent measurements, read-out: Ki α4β4
[16] = Table 3, mean of 3 independent measurements, read-out: Ki Forebrain
[17] = Table 5, rat nAChR subtypes, read-out: Ki α2β2
[18] = Table 6, [3H]-EB 0.099 nM, 0.091 nM, ligand 0.00197-100 μM, n = 1, read-out: Ki α2β2
[19] = Table 5, rat nAChR subtypes, read-out: Ki α2β4
[20] = Table 6, [3H]-EB 0.099 nM, 0.091 nM, ligand 0.00197-100 μM, n = 1, read-out: Ki α2β4
[21] = Table 5, rat nAChR subtypes, read-out: Ki α3β2
[22] = Table 6, [3H]-EB 0.099 nM, 0.091 nM, ligand 0.00197-100 μM, n = 1, read-out: Ki α3β2
[23] = Table 5, rat nAChR subtypes, read-out: Ki α3β4
[24] = Table 6, [3H]-EB 0.099 nM, 0.091 nM, ligand 0.00197-100 μM, n = 1, read-out: Ki α3β4
[25] = Table 5, rat nAChR subtypes, read-out: Ki α4β2
[26] = Table 6, [3H]-EB 0.099 nM, 0.091 nM, ligand 0.00197-100 μM, n = 1, read-out: Ki α4β2
[27] = Table 5, rat nAChR subtypes, read-out: Ki α4β4
[28] = Table 6, [3H]-EB 0.099 nM, 0.091 nM, ligand 0.00197-100 μM, n = 1, read-out: Ki α4β4
[29] = Table 5, *Rat forebrain, mainly α4β2, read-out: Ki α4β2*

T2 sequence (P12389 28-511): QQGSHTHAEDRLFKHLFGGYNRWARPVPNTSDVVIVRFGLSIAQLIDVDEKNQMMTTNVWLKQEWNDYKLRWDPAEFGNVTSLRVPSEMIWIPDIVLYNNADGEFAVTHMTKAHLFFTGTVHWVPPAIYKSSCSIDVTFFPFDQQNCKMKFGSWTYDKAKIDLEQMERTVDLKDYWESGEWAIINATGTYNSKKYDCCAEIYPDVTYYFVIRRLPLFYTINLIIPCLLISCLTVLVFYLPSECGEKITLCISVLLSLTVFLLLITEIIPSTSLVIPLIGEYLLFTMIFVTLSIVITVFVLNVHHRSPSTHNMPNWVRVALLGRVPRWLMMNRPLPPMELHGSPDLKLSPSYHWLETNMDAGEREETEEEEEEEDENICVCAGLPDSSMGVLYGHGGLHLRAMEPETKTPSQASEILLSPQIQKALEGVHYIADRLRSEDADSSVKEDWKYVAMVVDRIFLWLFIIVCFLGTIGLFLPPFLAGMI
T2 sequence (P12392 21-495): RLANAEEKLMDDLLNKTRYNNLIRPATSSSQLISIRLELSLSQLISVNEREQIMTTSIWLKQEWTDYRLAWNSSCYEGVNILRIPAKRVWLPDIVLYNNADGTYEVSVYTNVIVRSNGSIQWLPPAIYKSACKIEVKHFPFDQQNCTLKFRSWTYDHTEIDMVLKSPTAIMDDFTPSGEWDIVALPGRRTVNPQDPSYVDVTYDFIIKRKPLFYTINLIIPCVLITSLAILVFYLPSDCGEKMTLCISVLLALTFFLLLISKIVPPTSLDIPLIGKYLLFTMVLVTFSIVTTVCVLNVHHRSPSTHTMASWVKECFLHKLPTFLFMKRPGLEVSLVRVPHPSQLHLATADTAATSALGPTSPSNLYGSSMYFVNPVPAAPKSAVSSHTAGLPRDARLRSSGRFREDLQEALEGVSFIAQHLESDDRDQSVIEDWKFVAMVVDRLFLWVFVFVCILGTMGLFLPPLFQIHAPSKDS
T6 sequence (P12392 21-495): as above
T6 sequence (P09483 31-630): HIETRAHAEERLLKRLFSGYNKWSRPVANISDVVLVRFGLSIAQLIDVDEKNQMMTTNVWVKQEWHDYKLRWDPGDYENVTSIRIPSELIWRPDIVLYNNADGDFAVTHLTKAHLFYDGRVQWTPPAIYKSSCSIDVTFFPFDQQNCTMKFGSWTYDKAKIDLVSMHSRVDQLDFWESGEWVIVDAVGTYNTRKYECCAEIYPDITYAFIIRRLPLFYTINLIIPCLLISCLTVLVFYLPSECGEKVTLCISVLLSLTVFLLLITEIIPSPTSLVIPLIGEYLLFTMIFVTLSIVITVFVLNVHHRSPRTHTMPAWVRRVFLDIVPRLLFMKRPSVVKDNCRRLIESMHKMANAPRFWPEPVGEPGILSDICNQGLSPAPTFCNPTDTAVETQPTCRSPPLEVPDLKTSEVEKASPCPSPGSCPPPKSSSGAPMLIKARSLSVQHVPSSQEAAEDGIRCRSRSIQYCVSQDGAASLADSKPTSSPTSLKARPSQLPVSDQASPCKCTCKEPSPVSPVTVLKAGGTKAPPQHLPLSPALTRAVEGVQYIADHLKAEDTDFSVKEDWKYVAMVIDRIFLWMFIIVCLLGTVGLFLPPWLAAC
T3 sequence (P12390 25-500): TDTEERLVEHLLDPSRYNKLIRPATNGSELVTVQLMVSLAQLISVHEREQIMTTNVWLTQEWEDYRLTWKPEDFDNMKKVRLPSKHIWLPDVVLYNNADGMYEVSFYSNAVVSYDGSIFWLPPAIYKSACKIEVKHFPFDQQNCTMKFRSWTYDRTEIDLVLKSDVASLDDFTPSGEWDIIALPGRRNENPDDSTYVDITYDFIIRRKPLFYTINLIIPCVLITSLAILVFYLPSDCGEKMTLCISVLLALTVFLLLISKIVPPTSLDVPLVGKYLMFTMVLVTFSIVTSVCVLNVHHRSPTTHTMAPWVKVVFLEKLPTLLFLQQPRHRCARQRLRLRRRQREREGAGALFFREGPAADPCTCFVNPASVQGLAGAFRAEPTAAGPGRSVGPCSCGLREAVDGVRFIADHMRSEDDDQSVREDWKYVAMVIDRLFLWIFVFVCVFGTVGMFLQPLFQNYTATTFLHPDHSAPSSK
T3 sequence (P04757 26-499): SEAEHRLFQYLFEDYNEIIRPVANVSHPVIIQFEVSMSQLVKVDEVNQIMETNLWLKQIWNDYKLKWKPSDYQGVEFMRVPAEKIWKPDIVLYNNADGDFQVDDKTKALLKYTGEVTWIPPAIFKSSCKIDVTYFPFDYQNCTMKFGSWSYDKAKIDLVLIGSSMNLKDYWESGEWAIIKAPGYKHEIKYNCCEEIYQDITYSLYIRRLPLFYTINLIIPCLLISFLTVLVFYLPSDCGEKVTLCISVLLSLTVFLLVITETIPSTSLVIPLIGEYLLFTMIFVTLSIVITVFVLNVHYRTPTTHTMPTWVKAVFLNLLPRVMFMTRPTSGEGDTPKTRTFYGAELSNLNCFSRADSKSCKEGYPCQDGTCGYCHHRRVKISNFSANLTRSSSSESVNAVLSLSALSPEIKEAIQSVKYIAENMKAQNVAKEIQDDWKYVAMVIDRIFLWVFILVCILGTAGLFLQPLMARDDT
T1 sequence (P12390 25-500): as the sequence (P12390 25-500) above
T1 sequence (P12389 28-511): as the sequence (P12389 28-511) above
T5 sequence (P12390 25-500): as the sequence (P12390 25-500) above
T5 sequence (P09483 31-630): as the sequence (P09483 31-630) above
T7 sequence (P09483 31-630): as above
T7 sequence (P12390 25-500): as the sequence (P12390 25-500) above
T4 sequence (P04757 26-499): as the sequence (P04757 26-499) above
T4 sequence (P12392 21-495): as the sequence (P12392 21-495) above

Structure (SMILES) | Affinity ratio (α3β4/Forbrain) [8] | Ki [1, 17] | Ki [1, 18] | Ki [2, 19] | Ki [2, 20] | Ki [3, 21] | Ki [3, 22] | Ki [4, 23] | Ki [4, 24] | Ki [5, 25] | Ki [5, 26] | Ki [6, 27] | Ki [6, 28] | Ki [7, 29] | Ki [9] | also measured
OCCCCC#Cc1cncc(OC[C@@H]2CCCN2)c1 [Ligand 27] | 14,000 | – | – | – | – | – | – | – | – | – | – | – | – | – | – | Ki [1, 10]: 1.51 nM; Ki [2, 11]: 835 nM; Ki [3, 12]: 2.69 nM; Ki [4, 13]: 16100 nM; Ki [5, 14]: 0.665 nM; more selective for α4β2 over α3β4 than the corresponding parent compounds 7, 8, and 2 ([5]; text b210): 2 orders of magnitude; Ki [6, 15]: 778 nM; Ki [7, 16]: 1.15 nM
OCCCCC#Cc1ccc(C2CC3CCC2N3)cn1 (stereo not drawn) [Ligand 34] | 2 | – | – | – | – | – | – | – | – | – | – | – | – | – | – | Ki ([1]; Ki α2β2, Table 3, mean of 3 independent measurements): 16.9 nM; Ki ([2]; Ki α2β4, Table 3, mean of 3 independent measurements): 67.4 nM; Ki ([3]; Ki α3β2, Table 3, mean of 3 independent measurements): 19.8 nM; Ki ([4]; Ki α3β4, Table 3, mean of 3 independent measurements): 95.4 nM; Ki ([5]; Ki α4β2, Table 3, mean of 3 independent measurements): 67.7 nM; folds lower binding affinities than epibatidine at the nAChRs ([5]; text b208): 200-1000 folds; subtype selectivity among the neuronal nAChRs ([5]; text b208): less than 6 fold; Ki ([6]; Ki α4β4, Table 3, mean of 3 independent measurements): 61.8 nM; Ki ([7]; Ki Forebrain, Table 3, mean of 3 independent measurements): 52 nM
FCCCCC#Cc1cncc(OC[C@@H]2CCCN2)c1 [Ligand 42] | 2,197 | – | – | – | – | – | – | – | – | – | – | – | – | – | – | Ki [1, 10]: 3.5 nM; Ki [2, 11]: 680 nM; Ki [3, 12]: 5.27 nM; Ki [4, 13]: 7580 nM; affinities for α4β2 nAChR subtype (in words) [5]: subnanomolar; Ki [5, 14]: 0.907 nM; Ki [6, 15]: 721 nM; Ki [7, 16]: 3.45 nM
CN1CCC[C@H]1COc1cncc(CCCCCCO)c1 [Ligand 19, 5-(6-Hydroxy-1-hexanyl)-3-(1-methyl-2(S) -pyrrolidinylmethoxy)pyridine] | – | 3.33 nM | 3.33 nM | 1150 nM | 1150 nM | 13.4 nM | 13.4 nM | 20000 nM | 20000 nM | 0.75 nM | 0.754 nM | 968 nM | 968 nM | 5.39 nM | 5.39 nM | –
CN1CCC[C@H]1COc1cncc(C#CCCCCO)c1 [Ligand 16, 5-(6-Hydroxy-1-hexynyl)-3-(1-methyl-2(S) -pyrrolidinylmethoxy)pyridine] | – | 2.87 nM | 2.87 nM | 3230 nM | 3230 nM | 12.6 nM | 12.6 nM | 40200 nM | 40200 nM | 0.81 nM | 0.81 nM | 1270 nM | 1270 nM | 3.56 nM | 3.56 nM | –
CN1CCC[C@H]1COc1cncc(C#CCO)c1 [Ligand 14, 5-(3-Hydroxy-1-propargyl)-3-(1-methyl-2(S)-pyrrolidinylmethoxy)pyridine] | – | 2.43 nM | 2.43 nM | 1880 nM | 1880 nM | 7.64 nM | 7.64 nM | 18200 nM | 18200 nM | 0.954 nM | 0.954 nM | 1690 nM | 1690 nM | 3.16 nM | 3.16 nM | –
C#Cc1cncc(OC[C@@H]2CCCN2C)c1 [Ligand 18, 5-(1-Ethynyl)-3-(1-methyl-2(S)-pyrrolidinylmethoxy)pyridine] | – | 0.75 nM | 0.749 nM | 434 nM | 434 nM | 10.7 nM | 10.7 nM | 3080 nM | 3080 nM | 1.02 nM | 1.02 nM | 473 nM | 473 nM | 3.65 nM | 3.65 nM | –
